“And” between values parts separate entries of the source, which are not always exact repeats. Equal values may be shown once. Read-outs that look alike come from different tables or passages of the source.
Columns and labels:
Coniophora puteana = experiment: Rot jar test of glueline treated Pinus radiata plywood (AWPC 2007); conditions: Example 10, glueline rate giving 50% inhibition of weight loss, regression
Description: (§1) The end points used were EC90 or EC50, the concentration producing 90% or 50% inhibition of growth or weight loss resulting from fungal growth. EC values were calculated by regression analysis of dose response data using the GraphPad Prism software package (GraphPad Software, Inc., 5755 Oberlin Drive #110, San Diego, Calif. 92121, USA). EC90 values are expressed in ppm and EC50 values are expressed in gai/m^3.
Efficacy as a glueline fungicide was tested in plywood manufactured with phenol formaldehyde (PF), a typical resin used in engineered wood products. The wood type was Pinus radiata sapwood, which, like many softwoods, is rapidly degraded by decay organisms, if not protected. […]
(§2) In order to examine the interaction between triadimefon and cyproconazole in the glueline a synergy trial was performed using plywood manufactured with fungicide-supplemented PF resin and the rot jar method described above. Six glueline rates (expressed as gai/m^3) of triadimefon alone, cyproconazole alone, triadimefon+cyproconazole (10:1) and triadimefon+cyproconazole (6:1) were used to establish EC50 values by regression analysis. Synergy was determined by the Wadley method as described above using the EC50 values. […]

[1] = tested on: Fomitopsis lilacino-gilva (Brown rot); experiment: Malt extract agar plate growth inhibition; assay type: cell-based; conditions: Example 4, 5 days at 25° C.
Description: as §1
(§3) Decay fungi were grown on malt extract agar plates for 5 days at 25° C. in the presence of triadimefon alone or triadimenol alone (A), cyproconazole alone (B), and the pairs of mixtures shown in Table 2.

[2] = tested on: Trametes versicolor (White rot); experiment: Malt extract agar plate growth inhibition; assay type: cell-based; conditions: Example 4, 5 days at 25° C.
Description: as §1, §3

Serpula lacrymans = experiment: Rot jar test of glueline treated Pinus radiata plywood (AWPC 2007); conditions: for Percentage weight loss: leached, three month rot jar; for EC50(obs): Example 9, glueline rate giving 50% inhibition of weight loss, six rates, regression
Description: as §1
(§4) Efficacy as a glueline fungicide was tested in plywood manufactured with phenol formaldehyde (PF), a typical resin used in engineered wood products. The wood type was Pinus radiata sapwood, which, like many softwoods, is rapidly degraded by decay organisms, if not protected. Five 3.2 mm rotary-peeled veneers were laid up with fungicide-containing PF resin at a typical commercial glue spread rate (250 g/m^2), cold pressed for 10 minutes then hot pressed for 12 minutes at 135° C. and […]. Test specimens (25 mm×25 mm×16 mm) were cut, then leached for 14 days according to EN 84 before conducting a three month “rot jar test” as specified by the Australasian Wood Preservation Committee (Laboratory Decay Test for Hazard Classes H3, H4 and H5, AWPC, 2007). Untreated controls contained no fungicide.
as §2

[3] = tested on: Serpula lacrymans (Dry rot); experiment: Malt extract agar plate growth inhibition; assay type: cell-based
Description: (§5) The end points used were EC90 or EC50, the concentration producing 90% or 50% inhibition of growth or weight loss resulting from fungal growth. EC values were calculated by regression analysis of dose response data using the GraphPad Prism software package (GraphPad Software, Inc., 5755 Oberlin Drive #110, San Diego, Calif. 92121, USA). EC90 values are expressed in ppm and EC50 values are expressed in gai/m^3. […]
(§6) Further EC90 values were determined for this example in a standard manner.

[4] = tested on: Pycnoporus coccineus (White rot); experiment: Malt extract agar plate growth inhibition; assay type: cell-based
Description: as §5, §6

[5] = tested on: Poria placenta (Brown rot); experiment: Malt extract agar plate growth inhibition; assay type: cell-based
Description: as §5, §6

[6] = tested on: Gloeophyllum abietinum (Brown rot); experiment: Malt extract agar plate growth inhibition; assay type: cell-based; conditions: Example 5, 7 days growth
Description: as §5, §6

[7] = tested on: Tyromyces palustris (Brown rot); experiment: Malt extract agar plate growth inhibition; assay type: cell-based; conditions: Example 5, 4 days growth
Description: as §5, §6

[8] = cited from earlier work
[9] = tested on: Coniophora puteana (Brown rot); experiment: Malt extract agar plate growth inhibition; assay type: cell-based; conditions: Example 6, 8 days growth
Description: as §5

[10] = tested on: Antrodia xantha (Brown rot); experiment: Malt extract agar plate growth inhibition; assay type: cell-based
Description: as §5

[11] = tested on: Fomitopsis lilacino-gilva; experiment: Rot jar test of glueline treated Pinus radiata plywood (AWPC 2007); conditions: for EC50(obs): Example 9, glueline rate giving 50% inhibition of weight loss, six rates, regression
Description: as §1, §4
(§7) Plywood was manufactured following the procedure in Example 7 using triadimefon and triadimenol as the glueline fungicides and tested by the rot jar method after leaching.
(§8) In order to examine the interaction between triadimefon and cyproconazole in the glueline a synergy trial was performed using plywood manufactured with fungicide-supplemented PF resin and the rot jar method described above. Six glueline rates (expressed as gai/m^3) of triadimefon alone, cyproconazole alone, triadimefon+cyproconazole (10:1) and triadimefon+cyproconazole (6:1) were used to establish EC50 values by regression analysis. Synergy was determined by the Wadley method as described above using the EC50 values.
(§9) Plywood 29 mm thick was manufactured from seven 4.3 mm rotary peeled Pinus radiata sapwood veneers using PF resin supplemented with various rates of triadimefon plus cyproconazole at a 10:1 ratio. […] The finished plywood was then sprayed with the same mixtures to cover the top and bottom faces of the plywood. Test specimens (25 mm×25 mm×29 mm) were cut, leached and tested by the rot jar method as described in Example 7.

Antrodia xantha = experiment: as above; conditions: for EC50(obs): Example 9, glueline rate giving 50% inhibition of weight loss, six rates, regression; for Percentage weight loss: rot jar after leaching
Description: as §1, §4, §7, §8, §9

Tyromyces palustris = experiment: as above
Description: as §4
Plywood was manufactured following the procedure in Example 7 using triadimefon and triadimenol as the glueline fungicides and tested by the rot jar method after leaching. […]

[12] = cited from earlier work; remark: listed apart in the source
[13] = 20° C.; cited from earlier work
[14] = 20° C.; cited from earlier work; remark: listed apart in the source
Chondrostereum purpureum = conditions: cited from earlier work
[15] = cited from earlier work; remark: listed apart in the source
[16] = tested on: human and yeast CYP51 (lanosterol-14α-demethylase); conditions: cited from earlier work
Decay fungi = experiment: Malt extract agar plate growth test, statements over all decay fungi tested; assay type: cell-based; conditions: Example 4, EC90, Antrodia xantha, Fomitopsis lilacino-gilva, Trametes versicolor
Description: as §1, §3, §6

Trichoderma viride = conditions: cited from earlier work
Coriolus versicolor = conditions: cited from earlier work
[17] = Example 7, glueline 62.5 gai/m3, PF plywood
[18] = Example 7, glueline 125 gai/m3, PF plywood
[19] = Example 7, glueline 250 gai/m3, PF plywood
[20] = Example 7, glueline 500 gai/m3, PF plywood
[21] = Example 7, glueline 62.5 gai/m3, PF plywood, leached, three month rot jar
[22] = Example 7, glueline 125 gai/m3, PF plywood, leached, three month rot jar
[23] = Example 7, glueline 250 gai/m3, PF plywood, leached, three month rot jar
[24] = Example 7, glueline 500 gai/m3, PF plywood, leached, three month rot jar
[25] = Example 8, glueline 250 gai/m3, PF plywood, rot jar after leaching
[26] = Example 8, glueline 500 gai/m3, PF plywood, rot jar after leaching
[27] = Example 8, glueline 1000 gai/m3, PF plywood, rot jar after leaching
[28] = Example 8, glueline 2000 gai/m3, PF plywood, rot jar after leaching
[29] = Example 8, glueline 250 gai/m3, PF plywood
[30] = Example 8, glueline 500 gai/m3, PF plywood
[31] = Example 8, glueline 1000 gai/m3, PF plywood
[32] = Example 8, glueline 2000 gai/m3, PF plywood

CC(C1CC1)C(O)(Cn1cncn1)c1ccc(Cl)cc1 (racemic) [Cyproconazole]
EC50(obs) (Coniophora puteana): 345 gai/m^3 | EC90(obs) [1]: 0.12 ppm | EC90(obs) [2]: 0.30 ppm and 0.19 ppm | Percentage weight loss (Serpula lacrymans; [17]): 38.0% | Percentage weight loss (Serpula lacrymans; [18]): 38.0% | Percentage weight loss (Serpula lacrymans; [19]): 37.9% | Percentage weight loss (Serpula lacrymans; [20]): 29.6% | EC50(obs) (Serpula lacrymans): 465 gai/m^3 | EC90(obs) ([3]; Example 5, 5 days growth): 1.60 ppm | EC90(obs) ([3]; Example 6, 8 days growth): 1.32 ppm | EC90(obs) ([4]; Example 5, 4 days growth): 0.17 ppm | EC90(obs) ([4]; Example 6, 6 days growth): 0.14 ppm | EC90(obs) ([5]; Example 5, 5 days growth): 0.92 ppm | EC90(obs) ([5]; Example 6, 6 days growth): 0.36 ppm | EC90(obs) [6]: 0.25 ppm | EC90(obs) [7]: 0.68 ppm | Stability in water ([8]; pH 1): Stable in water 35 d | EC90(obs) [9]: 1.93 ppm | EC90(obs) ([10]; Example 4, 5 days at 25° C.): 0.19 ppm | EC90(obs) ([10]; Example 6, 8 days growth): 0.46 ppm | Percentage weight loss [11, 21]: 7.6% | Percentage weight loss [11, 22]: 4.1% | Percentage weight loss [11, 23]: 2.7% | Percentage weight loss [11, 24]: 0.8% | EC50(obs) [11]: 10 gai/m^3 | EC50(obs) (Antrodia xantha): 84 gai/m^3 | Percentage weight loss (Tyromyces palustris; [21]): 25.0% | Percentage weight loss (Tyromyces palustris; [22]): 16.0% | Percentage weight loss (Tyromyces palustris; [23]): 17.1% | Percentage weight loss (Tyromyces palustris; [24]): 4.3%

CC(C)(C)C(=O)C(Oc1ccc(Cl)cc1)n1cncn1 (racemic) [Triadimefon]
Kow (log P) [12]: 3.11 | EC50(obs) (Coniophora puteana): 2591144 gai/m^3 | Sol. Water [13]: 64 mg/L (20° C.) | EC90(obs) [1]: 1.48 ppm | EC90(obs) [2]: 1.52 ppm | Percentage weight loss (Serpula lacrymans; [17]): 42.4% | Percentage weight loss (Serpula lacrymans; [18]): 43.8% | Percentage weight loss (Serpula lacrymans; [19]): 42.2% | Percentage weight loss (Serpula lacrymans; [20]): 44.9% | EC50(obs) (Serpula lacrymans): 14328 gai/m^3 | EC90(obs) ([3]; Example 5, 5 days growth): 26.4 ppm | EC90(obs) ([3]; Example 6, 8 days growth): 26.3 ppm | EC90(obs) ([4]; Example 5, 4 days growth): 0.34 ppm | EC90(obs) ([4]; Example 6, 6 days growth): 0.70 ppm | EC90(obs) ([5]; Example 5, 5 days growth): 0.82 ppm | EC90(obs) ([5]; Example 6, 6 days growth): 1.08 ppm | EC90(obs) [6]: 17.2 ppm | EC90(obs) [7]: 4.48 ppm | Stability, hydrolysis DT50 ([8]; pH 4,7,9): DT50 >1 y pH 4,7,9 | Sol. DCM [14]: >200 g/L (20° C.) | Sol. hexane [14]: 6.3 g/L (20° C.) | Sol. toluene [14]: >200 g/L (20° C.) | EC90(obs) [9]: 27.4 ppm | EC90(obs) ([10]; Example 4, 5 days at 25° C.): 2.56 ppm | EC90(obs) ([10]; Example 6, 8 days growth): 2.52 ppm | Percentage weight loss [11, 21]: 17.8% | Percentage weight loss [11, 22]: 16.7% | Percentage weight loss [11, 23]: 10.3% | Percentage weight loss [11, 24]: 8.2% | Percentage weight loss [11, 25]: 19.1% | Percentage weight loss [11, 26]: 13.8% | Percentage weight loss [11, 27]: 5.1% | Percentage weight loss [11, 28]: 3.6% | EC50(obs) [11]: 121 gai/m^3 | Percentage weight loss (Antrodia xantha; [29]): 29.4% | Percentage weight loss (Antrodia xantha; [30]): 20.3% | Percentage weight loss (Antrodia xantha; [31]): 12.5% | Percentage weight loss (Antrodia xantha; [32]): 6.1% | EC50(obs) (Antrodia xantha): 248 gai/m^3 | Percentage weight loss (Tyromyces palustris; [21]): 28.7% | Percentage weight loss (Tyromyces palustris; [22]): 29.2% | Percentage weight loss (Tyromyces palustris; [23]): 16.5% | Percentage weight loss (Tyromyces palustris; [24]): 7.6% | Percentage weight loss (Tyromyces palustris; [25]): 14.2% | Percentage weight loss (Tyromyces palustris; [26]): 10.7% | Percentage weight loss (Tyromyces palustris; [27]): 2.0% | Percentage weight loss (Tyromyces palustris; [28]): 0.4%

CC(C)(C)C(O)C(Oc1ccc(Cl)cc1)n1cncn1 (stereo not shown) [Triadimenol]
sensitivity of the fungus (in words) (Chondrostereum purpureum): sensitive | Henry ([15]; triadimenol form A): 3 × 10^−6 P m^3 mo1^−1 | Henry ([15]; triadimenol form B): 4 × 10^−6 P m^3 mo1^−1 | EC90(obs) [1]: 0.37 ppm | EC90(obs) [2]: 0.15 ppm | EC90(obs) ([3]; Example 5, 5 days growth): 42.8 ppm | EC90(obs) ([4]; Example 5, 4 days growth): 0.10 ppm | EC90(obs) ([5]; Example 5, 5 days growth): 0.84 ppm | EC90(obs) [6]: 1.80 ppm | EC90(obs) [7]: 1.26 ppm | Stability, hydrolysis DT50 ([8]; pH 4): DT50 >1 y pH 4,7,9 | relative selectivity for the fungal enzyme (in words) ([16]; based on the IC50 ratio human/yeast): moderately selective | ratio of IC50 values (human/yeast) against CYP51 ([16]; human CYP51 IC50 / yeast (Candida albicans) CYP51 IC50): 113 | EC90(obs) ([10]; Example 4, 5 days at 25° C.): 1.12 ppm | efficacy acting alone relative to triadimefon acting alone (Decay fungi): two to ten times more efficacious | sensitivity of the fungus (in words) (Trichoderma viride): insensitive | sensitivity of the fungus (in words) (Coriolus versicolor): sensitive | Percentage weight loss [11, 25]: 9.0% | Percentage weight loss [11, 26]: 5.1% | Percentage weight loss [11, 27]: 1.6% | Percentage weight loss [11, 28]: 0.9% | Percentage weight loss (Antrodia xantha; [29]): 24.7% | Percentage weight loss (Antrodia xantha; [30]): 18.4% | Percentage weight loss (Antrodia xantha; [31]): 11.2% | Percentage weight loss (Antrodia xantha; [32]): 1.0% | Percentage weight loss (Tyromyces palustris; [25]): 9.6% | Percentage weight loss (Tyromyces palustris; [26]): 6.5% | Percentage weight loss (Tyromyces palustris; [27]): 0.9% | Percentage weight loss (Tyromyces palustris; [28]): 0.3%

— US9826740B2, “Synergistic fungicidal compositions and methods of use” (ZELAM LIMITED, priority 2010, dated 2017)
